Values joined by “and” are separate entries in the source; they are usually repeats but may differ in a detail not shown here. Equal values may be shown once. Where a name gives a salt, the structure may show the parent alone. Read-outs that look alike come from different tables or passages of the source.
Legend:
[1] = Volatility of perfuming compounds in air; type: physicochemical; details: for Volatility: Table 5, perfuming compounds having a green note
[2] = Table 9, perfuming compounds having a gourmand note
[3] = Table 8, perfuming compounds having a sweet note
[4] = Table 10, perfuming compounds having a woody note
[5] = Table 6, perfuming compounds having a fruity note

Compound: C=C1CCCC(C)(C)C1C(=O)OC (racemic)
- logP (physchem; n-octanol/water): 3.93

Compound: CC/C=C\CCOC(=O)c1ccccc1O [(3Z)-3-hexen-1-yl salicylate]
- logP (physchem; n-octanol/water): 4.83
- Volatility [1]: 4.34 μg/l air

Compound: O=C1CCC2(CCCCC2)O1 [1-oxaspiro[4.5]decan-2-one]
- logP (physchem; n-octanol/water): 1.66
- Volatility (μg/l air) [1, 2]: 62.86 μg/l air

Compound: O=C1CCCCCCCCCCC(=O)OCCO1 [1,4-dioxacyclohexadecane-5,16-dione]
- logP (physchem; n-octanol/water): 3.83
- Volatility (μg/l air) [1, 3]: 0.46 μg/l air

Compound: CCOc1cc(C=O)ccc1O [3-ethoxy-4-hydroxybenzaldehyde]
- logP (physchem): 1.27
- Volatility (μg/l air) [1, 3]: 0.11 μg/l air

Compound: CCC(=O)O[C@H]1C[C@@H]2CC[C@@]1(C)C2(C)C
- logP (physchem; n-octanol/water): 4.66
- Volatility (μg/l air) [1, 4]: 216.42 μg/l air

Compound: CC(=O)/C=C/C1=C(C)CCCC1(C)C [(3E)-4-(2,6,6-trimethyl-1-cyclohexen-1-yl)-3-buten-2-one]
- logP (physchem; n-octanol/water): 3.88
- Volatility (μg/l air) [1, 4]: 35.41 μg/l air

Compound: CC1COCc2cc3c(cc21)C(C)(C)C(C)C3(C)C (racemic)
- logP (physchem): 6.57
- Volatility (μg/l air) [1, 5]: 1.59 μg/l air

Compound: CC(=O)O[C@@H]1CC[C@@H]2C(C)(C)CCC[C@@]2(C)C1 (racemic)
- logP (physchem; n-octanol/water): 5.5
- Volatility (μg/l air) [1, 4]: 14.41 μg/l air

Compound: CCOC(=O)/C(C)=C/C(C)C [ethyl (2E)-2,4-dimethyl-2-pentenoate]
- logP (physchem; n-octanol/water): 3.35

Compound: C=CC(O)CCCCC (racemic) [(+−)-1-octen-3-ol]
- logP (physchem; n-octanol/water): 2.33
- Volatility [1]: 3030.11 μg/l air

Compound: C/C=C/C(=O)C1=C(C)C=CCC1(C)C
- logP (physchem; n-octanol/water): 3.27
- Volatility (μg/l air) [1, 5]: 119.10 μg/l air and 91.38 μg/l air
- Volatility (μg/l air) [1, 4]: 91.38 μg/l air

Compound: CCCCSCCCC [DIBUTYL SULFIDE]
- logP (physchem; n-octanol/water): 4.86
- Volatility [1]: 2766.10 μg/l air

Compound: CCCCCCCC(=O)OCC [ethyl octanoate]
- logP (physchem; n-octanol/water): 4.2
- Volatility [1]: 800.05 μg/l air

Compound: C[C@@H]1CC[C@H]2[C@H](C)C(=O)O[C@@H]2C1
- logP (physchem; n-octanol/water): 2.11
- Volatility (μg/l air) [1, 2]: 74.03 μg/l air

Compound: CCOC(C)=O [ETHYL ACETATE]
- logP (physchem): 0.8

Compound: CCCCCC1(C)CCC(C)(C)C1=O (racemic)
- logP (physchem; n-octanol/water): 4.63

Compound: O=Cc1ccc2c(c1)OCO2 [benzo[d][1,3]dioxole-5-carbaldehyde]
- logP (physchem): 1.52
- Volatility (μg/l air) [1, 2]: 61.82 μg/l air

Compound: CCOC(=O)C(C)C [ETHYL ISOBUTYRATE]
- logP (physchem; n-octanol/water): 2.03

Compound: CCCCCC1CCCC1O (racemic) [(+−)-2-PENTYL-1-CYCLOPENTANOL]
- Volatility (μg/l air) [1, 3]: 97.79 μg/l air

Compound: CC1=C(O)C(=O)CC1 [2-HYDROXY-3-METHYL-2-CYCLOPENTEN-1-ONE]
- Volatility (μg/l air) [1, 3]: 396.50 μg/l air

Compound: CCCCC1CCCC(=O)O1 (centres unmarked) [5-NONANOLIDE]
- Volatility (μg/l air) [1, 5]: 23.87 μg/l air
- Volatility (μg/l air) [1, 3]: 23.87 μg/l air
- Volatility (μg/l air) [1, 2]: 23.87 μg/l air

Compound: c1ccc(CCCc2ccccn2)cc1 [2-(3-PHENYLPROPYL)PYRIDINE]
- Volatility [1]: 3.83 μg/l air

Compound: CCCOC(C)OCCc1ccccc1 (centres unmarked) [1-PHENYL-2-(1-PROPOXYETHOXY)ETHANE]
- Volatility [1]: 59.63 μg/l air

Compound: CC(CC=O)c1ccccc1 (racemic) [(+−)-3-PHENYLBUTANAL]
- Volatility [1]: 227.83 μg/l air

Compound: CCc1occc(=O)c1O [2-ETHYL-3-HYDROXY-4(4H)-PYRANONE]
- Volatility (μg/l air) [1, 5]: 48.86 μg/l air
- Volatility (μg/l air) [1, 3]: 48.86 μg/l air

Compound: C=C/C=C/C=C\CCCCC
- Volatility [1]: 1247.28 μg/l air

Compound: CC(=O)O[C@@H]1CC2CC[C@]1(C)C2(C)C
- Volatility (μg/l air) [1, 4]: 735.37 μg/l air

Compound: CC1CCCC2(C)CCCCC12O (racemic)
- Volatility [1]: 330.48 μg/l air

Compound: COc1ccc(OC)c(C(C)(C)C)c1 [2-TERT-BUTYL-1,4-DIMETHOXYBENZENE]
- Volatility (μg/l air) [1, 4]: 82.95 μg/l air

Compound: CCOCOC1CCCCCCCCCCC1 [(ETHOXYMETHOXY)CYCLODODECANE]
- Volatility (μg/l air) [1, 4]: 6.63 μg/l air

Compound: CCOC(=O)Cc1ccccc1 [ETHYL PHENYLACETATE]
- logP (physchem): 2.1

Compound: C=C1C2CCC(C)(OCC)C1CCC2(C)C (racemic)
- Volatility (μg/l air) [1, 4]: 135.00 μg/l air

Compound: CCCCCCC1CCC(=O)O1 (racemic) [(+−)-4-DECANOLIDE]
- Volatility (μg/l air) [1, 5]: 10.49 μg/l air
- Volatility (μg/l air) [1, 3]: 10.49 μg/l air
- Volatility (μg/l air) [1, 2]: 10.49 μg/l air

Compound: COc1cccc(OC)c1O [2,6-DIMETHOXYPHENOL]
- Volatility (μg/l air) [1, 3]: 19.23 μg/l air
- Volatility (μg/l air) [1, 2]: 19.23 μg/l air

Compound: C=C(C)[C@@H]1CC=C(CO)CC1
- Volatility [1]: 33.78 μg/l air

Compound: CCC(C)C(=O)OCCc1ccccc1 (racemic) [(+−)-2-PHENYLETHYL 2-METHYLBUTANOATE]
- Volatility (μg/l air) [1, 5]: 37.73 μg/l air

Compound: CCC(C)(O)CCCC(C)C (racemic)
- Volatility [1]: 421.15 μg/l air

Compound: Cc1ncsc1CCO [2-(4-METHYL-1,3-THIAZOL-5-YL)-1-ETHANOL]
- Volatility (μg/l air) [1, 3]: 2.36 μg/l air

Compound: COc1ccc(COC(C)=O)cc1 [4-METHOXYBENZYL ACETATE]
- Volatility (μg/l air) [1, 5]: 17.59 μg/l air

Compound: COC(=O)OC1CC/C=C\CCC1 (racemic)
- Volatility [1]: 278.83 μg/l air

Compound: C[C@H]1[C@@H]2C[C@H](C[C@@]13C=CC(=O)CC3)C2(C)C
- Volatility (μg/l air) [1, 5]: 4.14 μg/l air
- Volatility (μg/l air) [1, 4]: 4.14 μg/l air

Compound: O=COCc1ccccc1 [BENZYL FORMATE]
- Volatility [1]: 1339.53 μg/l air

Compound: CCCCC1CCC(=O)O1 (racemic) [(+−)-4-OCTANOLIDE]
- Volatility (μg/l air) [1, 5]: 108.41 μg/l air
- Volatility (μg/l air) [1, 2]: 108.41 μg/l air

Compound: N#C/C=C/c1ccccc1 [(E)-3-PHENYL-2-PROPENENITRILE]
- Volatility (μg/l air) [1, 4]: 66.00 μg/l air

Compound: COC(=O)/C=C/c1ccccc1 [METHYL (E)-3-PHENYL-2-PROPENOATE]
- Volatility (μg/l air) [1, 5]: 61.65 μg/l air

Compound: CC1OCCC12NCCS2 (racemic)
- Volatility (μg/l air) [1, 3]: 52.47 μg/l air

Compound: COC(=O)C=C1CCCC1 [methyl cyclopentylideneacetate]
- logP (physchem; n-octanol/water): 2.02

Compound: COC(OC)C(C)(C)CC=C(C)C
- Volatility (μg/l air) [1, 4]: 1311.32 μg/l air

Compound: C[C@@H]1CC[C@H]2C(C)(C)[C@H]3C[C@@]12C[C@@H]1OC(C)(C)O[C@@]13C
- Volatility (μg/l air) [1, 4]: 0.00 μg/l air

Compound: SCc1ccco1 [2-FURANMETHANETHIOL]
- Volatility (μg/l air) [1, 3]: 29677.31 μg/l air

Compound: (−)-(1S)-2,6,6-TRIMETHYL-BICYCLO[3.1.1]HEPT-2-ENE
- Volatility [1]: 33722.60 μg/l air

Compound: CC(=O)OCc1ccccc1 [benzyl acetate]
- logP (physchem; n-octanol/water): 2.04

Compound: C=CCOC(=O)CCCCC [ALLYL HEXANOATE]
- logP (physchem; n-octanol/water): 3.62

Compound: O=C/C=C/c1ccccc1 [(E)-3-PHENYL-2-PROPENAL]
- Volatility (μg/l air) [1, 4]: 70.14 μg/l air

Compound: CCCCC[C@@H]1OC(=O)C[C@H]1C (racemic) [(+−)-TRANS-3-METHYL-4-NONANOLIDE]
- Volatility (μg/l air) [1, 5]: 21.05 μg/l air
- Volatility (μg/l air) [1, 3]: 21.05 μg/l air
- Volatility (μg/l air) [1, 2]: 21.05 μg/l air

Compound: CC(C)CCOCCc1ccccc1 [3-METHYLBUTYL 2-PHENYLETHYL ETHER]
- Volatility (μg/l air) [1, 5]: 110.11 μg/l air
- Volatility (μg/l air) [1, 3]: 110.11 μg/l air
- Volatility (μg/l air) [1, 2]: 110.11 μg/l air

Compound: CCCCCCC(=O)OCC [ethyl heptanoate]
- logP (physchem; n-octanol/water): 3.58

Compound: CC/C=C\CCO [(Z)-3-HEXEN-1-OL]
- Volatility [1]: 5986.62 μg/l air

Compound: CCC(=CCC1CC=C(C)C1(C)C)CO (racemic)
- Volatility (μg/l air) [1, 4]: 3.69 μg/l air

Compound: CCCCC/C=C\CCC=O [(Z)-4-DECENAL]
- Volatility [1]: 629.54 μg/l air

Compound: CCOC(=O)c1ccccc1 [ETHYL BENZOATE]
- logP (physchem): 2.51

Compound: CCCCCCCCCCO [1-DECANOL]
- Volatility [1]: 31.90 μg/l air

Compound: CC1(CO)CC1CC1CC2CC2(C)C1(C)C (centres unmarked)
- Volatility (μg/l air) [1, 4]: 1.74 μg/l air

Compound: CC1=CCC(C(C)(C)O)CC1 (racemic) [(+−)-ALPHA-TERPINEOL]
- Volatility (μg/l air) [1, 4]: 172.78 μg/l air

Compound: COc1nccnc1CCCC(C)C
- Volatility [1]: 195.24 μg/l air

Compound: CCOC(=O)/C=C/c1ccccc1 [ETHYL (E)-3-PHENYL-2-PROPENOATE]
- Volatility (μg/l air) [1, 5]: 20.55 μg/l air

Compound: COC(=O)Cc1ccccc1 [METHYL PHENYLACETATE]
- Volatility (μg/l air) [1, 3]: 555.30 μg/l air
- Volatility (μg/l air) [1, 2]: 555.30 μg/l air

Compound: CCC(=O)OC/C=C/c1ccccc1 [(E)-3-PHENYL-2-PROPENYL PROPANOATE]
- Volatility (μg/l air) [1, 5]: 8.14 μg/l air

Compound: CC(C)=CC1CC(C)CCO1 (centres unmarked)
- Volatility [1]: 2483.93 μg/l air

Compound: CC1CC(C)(C)OC(Cc2ccccc2)O1 (centres unmarked)
- Volatility [1]: 29.99 μg/l air

Compound: CC1C(C)(C)C2=C(C(=O)CCC2)C1(C)C (centres unmarked)
- Volatility (μg/l air) [1, 4]: 29.81 μg/l air

Compound: CC1CC(C)(c2ccccc2)OC(C)O1 (centres unmarked)
- Volatility (μg/l air) [1, 5]: 113.83 μg/l air

Compound: CC(=O)OCCc1ccccc1 [2-PHENYLETHYL ACETATE]
- Volatility (μg/l air) [1, 3]: 201.26 μg/l air
- Volatility (μg/l air) [1, 2]: 201.26 μg/l air

Compound: CC(=O)OC/C=C/c1ccccc1 [(E)-3-PHENYL-2-PROPENYL ACETATE]
- Volatility (μg/l air) [1, 5]: 20.47 μg/l air

— patent US11427783B2, “Perfuming compositions” (Firmenich SA, priority 2016, dated 2022)
